According to patent publication US11420962B2, “Indene derivatives useful in treating pain and inflammation” (TARO PHARMACEUTICALS INC., priority 2018, dated 2022):

Key:
Type in all cases: in vivo
[1] = tested on: female Sprague-Dawley rats; test: Cyclophosphamide-induced cystitis in rats (visceral pain); details: 0.3 to 1.0 mg/kg dose, oral gavage four days; 4 h after cyclophosphamide
Description: Representative compounds of the invention (i.e., test compounds) were administered to female Sprague-Dawley rats, for four days by oral gavage in 0.9% saline. Two hours after the fourth dose, the rats were challenged by intraperitoneal administration of cyclophosphamide (150 mg/kg). Referred mechanical sensitivity was measured four hours later by applying a series of eight von Frey filaments to the lower abdomen, three times each for 1-2 seconds with a 5 second interval between applications. Responses were scored (zero-no response; one-response, two-response and change of position, and three-response, change of position and licking the site or vocalization), totaled and the percent of maximal possible nociceptive score calculated. Ibuprofen was used as a reference standard.

Mice (male, C57Bl/6) [2] = test: Pulmonary LPS challenge assay in mice; details: 30 mg/kg, oral gavage once daily for three days; BALF 24 h post LPS
Description: Mice (male, C57Bl/6) were acclimatized for a period of about 7 days before initiation of the experiment and randomized on the day prior to treatment. Mice received vehicle or representative test compounds of the invention (i.e., test compounds) once daily for three days by oral gavage on Day −2, Day −1 and on Day 0 (the last dose being 1 h prior to LPS administration). One group of mice received the reference standard, dexamethasone, once, IP on Day 0 at 1 h prior to LPS administration. Pulmonary inflammation was induced in all animals except the sham control animals by intratracheal instillation of 20 μg LPS per animal in 50 μl saline. Sham control animals received 50 μl saline alone.
Twenty-four hours post LPS administration, animals were euthanized and the trachea was cannulated. Cold Hanks Balanced Salt Solution (HBSS) (SIGMA; Catalogue number: H1387), pH 7.2, was infused into the lungs and bronchoalveolar lavage fluid (BALF) was collected.
Total leukocyte counts were performed from the collected BALF using a mini flow-cytometer and differential counts were performed in cytospin smears stained with Leishman's staining manually. ELISA kits were used for quantification of cytokines in the BALF (TNFα, IL-1β, IL-6 and KC). Reagents, samples and standards were prepared as per kit manual. Total protein analysis in BALF samples were performed using the Biorad protein assay reagent. […]

Mice (male, C57Bl/6) [3] = test: Formalin pain assay in mice
Description: Mice (male, C57BL/6) were placed singly in a Perspex chamber for approximately 30 min on three successive days to acclimate and thereby reduce stress-induced behaviors. On the fourth day, the experimental animals received a 25 μl injection of 2.5% formalin beneath the left plantar skin using a 29-gauge syringe. […] The total time spent on flinches/licking/biting of the hind paw was recorded by visual observation for every 5 min period/interval for total observation duration of 60 min in two phases, the early phase (0-5 min) and the late phase (15-40 min). Observers were blinded to the treatment group allocation.
For test compounds, the % protection from 0-60 min was used to assess activity. Scoring for the test compounds was as follows: “A” represents a % protection of 81 to 100%, “B” represents a % protection of 61 to 80%, “C” represents a % protection of 31 to 60% and “D” represents a % protection of 0 to 30%.

male Sprague-Dawley rats = test: Rat chronic prostatitis/chronic pelvic pain (carrageenan); details: Day 3, 30 mg/kg dose, oral gavage QD
Description: Representative compounds of the invention (i.e., test compounds) were administered for 11 days by oral gavage in 0.9% saline (3, 10 or 30 mg/kg QD; 5 mL/kg dose volume) to male Sprague-Dawley rats. Carrageenan-mediated chronic prostatitis/chronic pelvic pain (CP/CPPS) established in rats (10 per group) by administration of an intraprostatic injection of carrageenan (˜12.5 μL/lobe of a 30 mg/mL solution) into both ventral prostate lobes, on Day 0. Referred mechanical sensitivity was measured on Days 0, 1, 3 and 7, 2 hours after test compound, or vehicle (saline) administration, by applying 6 von Frey filaments with increasing forces of 0.16-2 g to the scrotal skin area, 3 times each for 1-2 seconds, with a 5-second interval between applications. Responses were scored (zero-no response; one-reaction of the animal, two-jump, and three-licking the site) and expressed as the nociceptive threshold for each day of assessment. Ibuprofen was used as a reference standard.
According to the above assay, Compound Ia-1 restored nociceptive threshold to 65% of baseline on Day 3 at the 30 mg/kg dose as compared to the reference standard, ibuprofen (300 mg/kg), which restored the threshold to 120% of the baseline.

rats (male, Wistar) = test: Rat monosodium iodoacetate-induced osteoarthritis; details: for reduction difference in weight bearing as compared to the vehicle: PO, QD
Description: Representative compounds of the invention (i.e., test compounds) were administered to rats (male, Wistar) PO, QD, at 3 or 30 mg/kg, starting on Day 0 through to Day 21 of the study. Osteoarthritis was modeled by intra-articular injection of 3 mg of monosodium iodoacetate (MIA) in the right knee. Knee swelling, paw withdrawal threshold (mechanical allodynia) and the difference in weight bearing were measured on Day 0 (pre-induction) and on Days 3, 7, 14 and 21 post-MIA injection. Tramadol was used as a reference standard.

[4] = tested on: Rats (male, Sprague-Dawley); test: Spinal nerve ligation (neuropathic pain)
Text: Rats (male, Sprague-Dawley) were anaesthetized and placed in a prone position and the left paraspinal muscles were separated from the spinous processes at the L6-S2 levels. The L6 transverse process was carefully removed to visually identify the L4-L6 spinal nerves. The left L5 spinal nerves were isolated and tightly ligated with 6-0 silk thread. The skin was sutured to close the open tissue and animals were allowed to recover for 1 week before pain assessment. Basal readings for mechanical allodynia and thermal hyperalgesia were performed using a dynamic plantar aesthesiometer and plantar test surface, respectively, before surgery. On Day 7 following surgery, mechanical allodynia and thermal hyperalgesia were assessed and animals were randomized into treatment groups based on these baseline readings. […] Thermal hyperalgesia and mechanical allodynia were tested at 0, 60 and 120 minutes post administration of compounds on Days 7 and 14.

## C=C1CC[C@H]2[C@H](CN)[C@@H]([C@@]3(C)Cc4cn[nH]c4C[C@@H]3CO)CC[C@]12C [Ia-1, ((5R,6S)-5-((3aS,4R,5S,7aS)-4-(aminomethyl)-7a-methyl-1-methyleneoctahydro-1H-inden-5-yl)-5-methyl-4,5,6,7-tetrahydro-1H-indazol-6-yl)methanol]
[1]
  nociceptive threshold, % of baseline (pre-challenge) levels: 70-91%
Mice (male, C57Bl/6) [2]
  % protection from neutrophilia: 44%
Mice (male, C57Bl/6) [3]; 30 mg/kg dose, 0-5 min
  % inhibition, early phase (neurogenic pain): 59%
Mice (male, C57Bl/6) [3]; 30 mg/kg dose, 15-40 min
  % inhibition, late phase (inflammatory pain): 52%
Mice (male, C57Bl/6) [3]; Table 7, formalin 2.5%, left plantar
  Scoring (% protection from 0-60 min): B (a % protection of 61 to 80%)
Male Sprague-Dawley rats
  nociceptive threshold restored, % of baseline: 65%
Rats (male, Wistar); 3.0 mg/kg dose
  reduction difference in weight bearing as compared to the vehicle: 50%
Rats (male, Wistar); 30 mg/kg
  reduction difference in weight bearing as compared to the vehicle: 57%
Rats (male, Wistar); Day 3, 3.0 mg/kg
  reduction in knee diameter as compared to the vehicle: 23%
Rats (male, Wistar); Day 3, 30 mg/kg
  reduction in knee diameter as compared to the vehicle: 43%
[4]; 3 mg/kg
  overall increase in paw withdrawal threshold as compared to the vehicle: 48%
[4]; 10 mg/kg
  overall increase in paw withdrawal threshold as compared to the vehicle: 62%
[4]; 30 mg/kg
  overall increase in paw withdrawal threshold as compared to the vehicle: 82%
